Where “and” joins values, the source holds several entries; their conditions need not be identical. Equal entries are not always repeated.
Tests used:
[1] = test system: Aspergillus niger ATCC 16404; test: MIC determination and synergy testing (Kull synergy index), microplate; type: cell-based
Protocol: (§1) The test cultures are listed in Table 7 along with the incubation temperatures used for growth and minimum inhibitory concentration (MIC) testing. […] C. albicans was cultured in Sabouraud dextrose broth (SDB) for approximately 44-52 hours for preparation of inoculum. A. niger was cultured on Sabouraud dextrose agar (SDA) for 3-4 days until there was confluent growth and visible spore formation. Spores were harvested from the SDA plates by flooding the surface of the plate with 5-10 mL of phosphate-buffered saline (PBS) and gently spreading the liquid across the surface of the plate with a sterile T-shaped plastic spreader (Copan Diagnostics) until there was a well-mixed suspension of spores. The resulting spore suspension was collected using a serological pipette and stored at 2-8° C. until use.
(§2) Inoculum concentration was determined by dilution plating of the cultures or spore suspension. A serial dilution in PBS was made to 10^−8 for the bacterial cultures or 10^−5 for the fungal cultures. Fifty or 100 μL of the final dilution was spread on two Trypticase-soy agar (TSA) plates for bacteria or two SDA plates for fungi. After 24 to 48 hours plates were counted and the concentrations used in each experiment were calculated.
The A. niger spore suspensions were concentrated to a level of 1-2×10^8 spores/mL by centrifugation and resuspension in a portion of the resulting supernatant.
(§3) The antimicrobial agents tested for synergy along with the respective diluents and working stock solution concentrations are shown below. For determination of MIC ranges, individual antimicrobial agent stock solutions were added to sterile medium to yield the highest level test concentrations, and then serially diluted in the medium to prepare the range of test concentrations. For synergy testing individual test concentrations were prepared in sterile medium, and then blended to form the desired combinations.
(§4) MICs were determined using a high-throughput microplate method. Individual antimicrobial agents were added to TSB (pH 7.3) for bacterial testing or SDB (pH 5.6) for fungal testing at the highest concentration to be tested. A serial dilution series was prepared at a dilution ratio of 1:1.3333 such that a one log range was covered in nine dilutions. Two-hundred microliters of the diluted antimicrobial agents were dispensed into four wells each of a sterile, 96-well, flat-bottom microplate (Nalge Nunc International). Four additional wells of the highest concentration were dispensed to serve as uninoculated high-level controls. Eight additional wells containing only broth medium were also prepared, four to serve as negative controls and four as positive controls. Three wells of each antimicrobial agent dilution were inoculated with one of the test strains in Table 7. The final well of each antimicrobial agent dilution was left uninoculated to serve as a control (and means of compensating) for any absorbance/turbidity due to the test compounds.
Microplates were inoculated using the cultures or spore suspensions prepared as described above. The S. aureus cultures were used undiluted, while the E. coli and P. aeruginosa cultures were used either undiluted or after a 1:2 dilution in sterile TSB. The C. albicans cultures were used either undiluted or following a 2-fold concentration by centrifugation. One of two means of inoculation was used to deliver a final concentration of approximately 10^5 colony-forming units (CFU)/mL of C. albicans, 10^5 spores/mL of A. niger, or 10^6 CFU/mL of bacteria. The primary method used a stainless steel pin replicator (Nalge Nunc International) mounted on a hand-operated bench-top press (Schmidt Technology Corporation) fitted with a custom-built microplate holder to dispense one microliter of each inoculum from a “master” plate containing 50-100 μL of culture into the wells of the test plate. The pin replicator was sterilized before and between inoculations by immersing in ethanol and flaming. […]

[2] = test system: Escherichia coli ATCC 25922; test: as above; type: cell-based; conditions: for QB/b: concentration of CG (MIC alone, or in the combination at an inhibitory concentration) / SI (synergy index) / QA, MIC of CHDM alone / QA/a: concentration of CHDM (MIC alone, or in the combination at an inhibitory concentration) / QA/a: concentration of CHDM alone (QA, MIC): E. coli; for QB/b: concentration of CG (MIC alone, or in the combination at an inhibitory concentration) / SI (synergy index) / QA/a: concentration of CHDM (MIC alone, or in the combination at an inhibitory concentration): plate 107A, CG and CHDM
Protocol: as §1, §2, §3, §4
Microplates were inoculated using the cultures or spore suspensions prepared as described above. The S. aureus cultures were used undiluted, while the E. coli and P. aeruginosa cultures were used either undiluted or after a 1:2 dilution in sterile TSB. The C. albicans cultures were used either undiluted or following a 2-fold concentration by centrifugation. One of two means of inoculation was used to deliver a final concentration of approximately 10^5 colony-forming units (CFU)/mL of C. albicans, 10^5 spores/mL of A. niger, or 10^6 CFU/mL of bacteria. The primary method used a stainless steel pin replicator (Nalge Nunc International) mounted on a hand-operated bench-top press (Schmidt Technology Corporation) fitted with a custom-built microplate holder to dispense one microliter of each inoculum from a “master” plate containing 50-100 μL of culture into the wells of the test plate. The pin replicator was sterilized before and between inoculations by immersing in ethanol and flaming. The alternative method of inoculation was by directly pipetting 20 μL of a 1:20 dilution of each culture or spore suspension into the appropriate wells of the test plates.

[3] = A. niger, plate 154C, day 3, MP and CHDM

Compound: CCCCCCC(O)CO (stereo not drawn) [CG, 1,2-octanediol]
- Synergism of antimicrobial agent in combination with 1,4-CHDM for A. niger (in words; in the 12th table the cell names the organism and table number) ([1]; Kull synergy index, synergistic when at least two results SI<1): A. niger (14)
- QB/b: concentration of CG (MIC alone, or in the combination at an inhibitory concentration) ([2]; day 1): 0.16 weight percent
- SI (synergy index) ([2]; day 1): 1.00
- QB/b: concentration of CG (MIC alone, or in the combination at an inhibitory concentration) ([2]; day 2): 0.16 weight percent
- SI (synergy index) ([2]; day 2): 1.00

Compound: OCC1CCC(CO)CC1 (stereo not drawn) [1,4-CHDM, 1,4-cyclohexanedimethanol]
- QA, MIC of CHDM alone ([1]; A. niger, day 2 of incubation, plates 123C, 217C (CG series)): 4.50 weight percent and 3.11 weight percent
- QA, MIC of CHDM alone ([1]; A. niger, day 3 of incubation, plate 123C (CG series)): 3.11 weight percent
- QA/a: concentration of CHDM (MIC alone, or in the combination at an inhibitory concentration) [1, 3]: 2.03 weight percent
- SI (synergy index) [1, 3]: 1.00
- QA/a ([1]; CHDM alone (QA) or in combination with DMDM hydantoin (a), plate 196C, day 3): 2.78
- QA/a ([1]; CHDM alone (QA) or in combination with IPBC (a), plate 259C, day 2): 5.00
- QA/a ([1]; CHDM alone (QA) or in combination with IPBC (a), plate 260C, day 3): 6.50
- QA/a ([1]; CHDM: MIC alone (QA) or conc. in combination with BA:DHA (a), plate 195C, day 2): 4.93
- QA/a ([1]; CHDM: MIC alone (QA) or conc. in combination with BA:DHA (a), plate 195C, day 3): 4.93
- QA/a ([1]; CHDM: MIC alone (QA) or conc. in combination with BA:DHA (a), plate 215C, day 2): 4.50
- QA/a ([1]; CHDM: MIC alone (QA) or conc. in combination with BA:DHA (a), plate 215C, day 3): 4.50
- QA/a ([1]; CHDM: MIC alone (QA) or conc. in combination with CP (a), plate 194C, day 2): 3.70
- QA/a ([1]; CHDM: MIC alone (QA) or conc. in combination with CP (a), plate 194C, day 3): 2.78
- QA/a ([1]; CHDM: MIC alone (QA) or conc. in combination with MIT (a), plate 193C, day 2): 4.93
- QA/a ([1]; CHDM: MIC alone (QA) or conc. in combination with MIT (a), plate 193C, day 3): 2.78
- QA/a ([1]; CHDM: MIC alone (QA) or conc. in combination with MIT (a), plate 214C, day 2): 4.50
- QA/a ([1]; CHDM: MIC alone (QA) or conc. in combination with MIT (a), plate 214C, day 3): 6.00
- QA/a ([2]; CHDM alone (QA) or in combination with BA:DHA (a), plate 111A, day 1): 1.73
- QA/a ([2]; CHDM alone (QA) or in combination with IPBC (a), plate 119A, day 1): 1.73
- QA/a ([2]; CHDM alone (QA) or in combination with IPBC (a), plate 119A, day 2): 1.73
- QA/a ([2]; CHDM: MIC alone (QA) or conc. in combination with CP (a), plate 110A, day 1): 1.73
- QA/a ([2]; CHDM: MIC alone (QA) or conc. in combination with CP (a), plate 110A, day 2): 1.73
- QA, MIC of CHDM alone ([2]; day 1 of incubation, plate 108A (MP series)): 1.73 weight percent
- QA, MIC of CHDM alone ([2]; day 1 of incubation, plates 105A, 213A, 223A (PE series)): 1.30 weight percent and 1.47 weight percent
- QA, MIC of CHDM alone ([2]; day 2 of incubation, plate 108A (MP series)): 1.73 weight percent
- QA, MIC of CHDM alone ([2]; day 2 of incubation, plates 105A, 213A, 223A (PE series)): 1.30 weight percent and 1.47 weight percent
- QA/a: concentration of CHDM (MIC alone, or in the combination at an inhibitory concentration) ([2]; day 1): 1.73 weight percent
- SI (synergy index) ([2]; day 1): 1.00
- QA/a: concentration of CHDM (MIC alone, or in the combination at an inhibitory concentration) ([2]; day 2): 1.73 weight percent
- SI (synergy index) ([2]; day 2): 1.00
- QA/a: concentration of CHDM alone (QA, MIC) ([2]; Table 44, Day 1): 1.73 weight percent
- QA/a: concentration of CHDM alone (QA, MIC) ([2]; Table 44, Day 2): 1.73 weight percent
- QA/a: concentration of CHDM alone (QA, MIC) ([2]; Table 47, Day 1): 1.73 weight percent
- QA/a: concentration of CHDM alone (QA, MIC) ([2]; Table 47, Day 2): 1.73 weight percent

Reference: patent US20110028566A1, “COMPOSITIONS AND PRODUCTS CONTAINING CYCLOALIPHATIC DIOL ANTIMICROBIAL AGENTS AND METHODS OF USING THE COMPOSITIONS AND PRODUCTS” (EASTMAN CHEMICAL COMPANY, priority 2009, published 2011)
